Experimental findings from publication PMC9792601, “Conformational switch and multiple supramolecular structures of a newly identified self-assembling protein-mimetic peptide from Pseudomonas aeruginosa YeaZ protein” (Frontiers in Chemistry, 2022) are described below.

Ends that are not written are not given here.

For series [1] the following is noted: 20 mM hydrogel in Milli-Q water, room temperature, 10 months.
Experimental: To prepare the hydrogels at different concentration, the lyophilized PMP-2 was dissolved in the suitable amount of Milli-Q water (final concentration of the prepared solutions: 0.1, 1, 2, 5, 10, and 20 mM) heating at 60°C for 3 min and sonicating for 1 min. The clear solutions were left cooling at rt.
5 Preparation of the PMP-2-based hydrogels
PMP-2 was dissolved in the suitable amount of milliQ water (final concentration of the prepared
solutions: 0.1 mM, 1 mM, 2 mM, 5 mM, 10 mM and 20 mM) heating at 60 °C for 3 minutes and
sonicating for 1 min. The clear solutions were left cooling at rt.
The 20 mM hydrogel was kept at room
A short description of series [2]: Solubility observations in solvents. The series is classed as physicochemical.
Series [3] in a line: Dynamic Light Scattering of aggregates. It is filed as physicochemical. The conditions noted are these: 25°C, aged 24 h. On the procedure:
Malvern Zetasizer Nano instrument (Malvern Panalytical, Ltd.) was employed for Dynamic Light Scattering (DLS) analysis, performed at 25°C. The instrument is equipped with a 633 nm […] He–Ne laser at a scattering angle of 173°. All the samples used to analyze the stability of the PMP-2 aggregates as a function of different DMSO/water ratio were prepared by solvent displacement technique starting from concentrated solutions in 100% DMSO (0.125, 0.2, 0.5, 2, 4, and 10 mM) to obtain 0.1 mM final concentrations in Milli-Q water, with 80%, 50%, 20%, 10%, 5%, 2.5% and 1% v/v of DMSO, respectively. All the samples used to analyze the stability of the PMP-2 aggregates as a function of concentration were prepared starting from 0.1 mM in Milli-Q water with 5% v/v of DMSO and diluting with Milli-Q water to obtain the final concentration of 0.05, 0.01, 0.005, and 0.001 mM. The corresponding refractive index and viscosity data of DMSO/water mixtures are reported in the literature ([LeBel and Goring, 1962]) and the samples were aged 24 h at room temperature before the measurements.

On to AIAIGVVQGLAFALGGKKKG [PMP-2], for which the “stability of hydrogel on storage” value in series [1] was “complete stability”. Also, in series [2] (DMSO), the “highest reachable concentration in DMSO” value was determined as 20 mM. Besides, the solubility in water entry in series [2] (water, room temperature) is recorded as “low solubility at room temperature”. Moreover, the DLS aggregate stability result in series [3] (0.1 mM, 5, 2.5 and 1% v/v DMSO/water) is recorded as “presence of stable aggregates”; in series [3] (0.1 mM, 20% and 10% DMSO in water) it was “formation of some stable aggregates”; in series [3] (0.1 mM, 100, 80 and 50% v/v DMSO/water) it was “very poor scattering power”.
